Experiments:
[1] = MRI relaxivity of Mn-PDA contrast agents with BAPTA, with and without calcium, in buffer; type: physicochemical; conditions: 1.1 equivalents BAPTA, equimolar Ca^2+
Description: To examine the potential of Mn-PDA contrast agents to function as building blocks for the sensor design of FIG. 1A, MRI measurements were performed to assess the potential of BAPTA to interact with three paramagnetic chelates (FIG. 1A, inset). Addition of 1.1 equivalents of BAPTA to two of the Mn-PDA complexes, MnL1 and MnL3, produced significant effects on the T1-weighted MRI contrast induced by these compounds in buffer. These BAPTA-dependent contrast changes were reversed by addition of equimolar Ca^2+ (FIG. 1B). This was consistent with Mn-PDA moieties competing with Ca^2+ for binding to BAPTA molecules. The changes were quantified in terms of T1 relaxivity (r1) values, which were defined as the slope of the T1 relaxation rate (1/T1=R1) vs. concentration of each paramagnetic complex.
Most MRI data were acquired on a 7 T Bruker Biospec0 system using a T1-weighted 2D gradient echo sequence (echo time, TE=5 ms, repetition time, TR=100 ms; flip angle, FA=65 degrees (°)). Longitudinal relaxivity (r1) measurements were acquired using a 2D spin echo sequence (TE=11 ms, TR=125, 200, 400, 800, 1500, 3000, and 5000 ms), with in-plane resolution of 200×200 microns squared ((μm)^2) and 2 mm slice thickness. […] Stimulus-dependent R1 changes in cells were calculated as ΔR1/R1=[R1(incubated cells)−R1(naive cells)]/R1(naive cells). […]

[2] = Optical spectra / mass spectrometry of Mn-PDA complexes incubated with BAPTA over time; type: physicochemical; conditions: mixture with BAPTA, 0 h vs 24 h; confirmed by mass spectrometry
Source text: In contrast, the MnL1 mixture with BAPTA developed a strong peak for uncomplexed L1 (m/z=347.37), indicating dissociation of the MnL1 complex.

spectroscopic behavior in the presence of BAPTA over time (stability) [2]: sharp changes indicative of degradation
SMILES: O=C1c2ccccc2[O][Mn-]23[O]c4ccccc4C(=O)[N]2c2ccccc2[N]13 [MnL1]
Calcium-dependent changes in r1 in the presence of BAPTA [1]: 105%

— patent US10933146B2, “Cell-permeable imaging sensors and uses thereof” (Massachusetts Institute of Technology, priority 2017, dated 2021)
